Data: patent publication US9340577B2, “HLA binding motifs and peptides and their uses” (priority 1992, dated 2016)
pIC50: −log10 of the molar value. No end group written: not given here.

How the values were obtained:
Assay in all cases: biochemical
DRB1*0901 = DRB1*0901 (Homo sapiens, UniProt P01903+P01911, A100R/A103E/D57H/D86V/F55Y/F60I/F76Y/I96F/K127E/L162R/M171V/P40D/Q125H/Q99R/R33Q/R42F/S133A/S66N/T210M/V115G/W38K/Y107V/Y59G/Y89S); format: binding
DRB1*1201 = DRB1*1201 (Homo sapiens, UniProt P01903+P01911, A100R/A169T/D57E/D86V/F55L/H45Y/K41T/L162R/M171V/P40S/Q125H/Q178H/Q39Y/Q99D/R42G/S66L/T262R/V114A/V67L/W38E/Y59H/Y61H/Y89S); format: binding
DRB1*1501 = DRB1*1501 (Homo sapiens, UniProt P01903+P01911); format: binding
DRB1*0802 = DRB1*0802 (Homo sapiens, UniProt P01903+P01911, A100R/A103L/A169T/F76Y/H45Y/I96F/K41T/L162R/M171V/P40S/Q125H/Q178H/Q39Y/Q99D/R218S/R42G/S66Y/V115G/W38E); format: binding
DRB1*1101 = DRB1*1101 (Homo sapiens, UniProt P01903+P01911, A100R/A169T/A87E/I96F/K41T/L162R/M171V/P40S/Q125H/Q178H/Q39Y/Q99D/R42S/S66Y/T262R/V115G/W38E)
DRB1*1101, sequence (P01903 26-254 limits assumed, other chains not shown): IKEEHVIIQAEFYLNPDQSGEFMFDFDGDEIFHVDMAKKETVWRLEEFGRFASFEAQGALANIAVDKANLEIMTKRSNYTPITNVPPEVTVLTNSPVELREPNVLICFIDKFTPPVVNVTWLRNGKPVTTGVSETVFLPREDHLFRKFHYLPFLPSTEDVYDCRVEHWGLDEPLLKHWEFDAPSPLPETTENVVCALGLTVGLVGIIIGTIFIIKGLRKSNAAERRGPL

DRB5*0101 = DRB5*0101 (Homo sapiens, UniProt P01903+Q30154); details: Binding affinity DRB5 *0101
DR1 (DRB1*0101) = DR1 (DRB1*0101) (Homo sapiens, UniProt P01903+P01911, A100R/D57E/F55L/F60I/F76Y/I96L/L162R/M171V/P40L/Q125E/R42F/V115G/Y59C); format: binding
DR4w4 (DRB1*0401) = DR4w4 (DRB1*0401) (Homo sapiens, UniProt P01903+P01911, A100K/A169T/F76Y/I96L/K127E/L162R/M171V/N62H/P40V/Q125Y/R42H/S133A/S149N/S66Y/V115G/V209L/W38E); format: binding
DRB4*0101 = DRB4*0101 (Homo sapiens, UniProt P01903+P13762, G164S); format: binding
DR7 (DRB1*0701) = DR7 (DRB1*0701) (Homo sapiens, UniProt P01903+P01911, A100R/A102G/A103Q/D57E/D86V/E43K/F76Y/K127E/L162R/M171V/P40G/Q125H/Q99D/R33Q/R42Y/R54Q/S133A/S66F/T210M/V115G/Y107V/Y59L/Y89S); format: binding
DRB1*0405 = DRB1*0405 (Homo sapiens, UniProt P01903+P01911, A100R/A169T/D86S/F76Y/I96L/K127E/L162R/M171V/N62H/P40V/Q125Y/R42H/S133A/S149N/S66Y/V115G/V209L/W38E); format: binding
DRB1*1302 = DRB1*1302 (Homo sapiens, UniProt P01903+P01911, A100E/A169T/K41T/L162R/M171V/P40S/Q125H/Q178H/Q39Y/Q99D/R42S/S66N/T262R/V115G/W38E/Y61H); format: binding
DRB1*1302, sequence (P01903 26-254 limits assumed, other chains not shown): as above

Row | Molecule | pIC50 (DRB1*0901) | pIC50 (DRB1*1201) | pIC50 (DRB1*1501) | pIC50 (DRB1*0802) | pIC50 (DRB1*1101; Binding affinity DRB1 *1101) | pIC50 (DRB5*0101) | pIC50 (DR1 (DRB1*0101)) | pIC50 (DR4w4 (DRB1*0401)) | pIC50 (DRB4*0101) | pIC50 (DR7 (DRB1*0701)) | pIC50 (DRB1*0405) | pIC50 (DRB1*1302) | pIC50 (DRB1*1101; […])
1 | EDFFKLERDMKINCS [Peptide 68.0167] | < 4.70 | < 4.70 | < 4.70 |  |  |  |  |  |  |  |  |  | 
2 | CC[C@H](C)[C@H](NC(=O)[C@H](CO)NC(=O)[C@H](CO)NC(=O)[C@H](CC(=O)O)NC(=O)[C@H](C)NC(=O)[C@H](CC(N)=O)NC(=O)[C@@H](NC(=O)[C@H](Cc1ccc(O)cc1)NC(=O)[C@H](C)NC(=O)[C@@H](N)C(C)C)[C@@H](C)CC)C(=O)N[C@@H](CCC(=O)O)C(=O)NCC(=O)N[C@@H](CC(N)=O)C(=O)N[C@@H](Cc1ccc(O)cc1)C(=O)N[C@H](C(=O)O)[C@@H](C)O [Peptide 68.0177] |  | 5.08 | < 4.70 | < 4.70 | < 4.70 | < 4.70 |  |  |  |  |  |  | 
3 | VSFLSALKLFLKGVP [Peptide 89.0053] | 5.67 | 7.09 | 5.84 | 6.54 | 7.19 |  | 7.64 | 5.80 | 7.64 |  |  |  | 
4 | IWEVHMENESIYCPD [Peptide 90.0237] | 5.26 | < 4.70 | < 4.70 | < 4.70 | < 4.70 | < 4.70 | 5.75 | 5.47 |  | < 4.70 | < 4.70 | 5.71 | 
5 | SEIYIIEETTCTLVA [Peptide 90.0250] | < 4.70 | < 4.70 |  | < 4.70 | < 4.70 | < 4.70 |  |  | 6.64 | < 4.70 | 5.09 | 6.40 | 
6 | ELQMALKGLAQSKYN [Peptide 90.0005] | 6.46 | 7.39 | < 4.70 | 6.90 | 7.19 | 6.32 | 7.09 | 5.65 |  | < 4.70 | 5.23 | 5.00 | 
7 | CC[C@H](C)[C@H](NC(=O)[C@H](CO)NC(=O)[C@H](CO)NC(=O)[C@H](CC(=O)O)NC(=O)[C@H](C)NC(=O)[C@H](CC(N)=O)NC(=O)[C@@H](NC(=O)[C@H](Cc1ccc(O)cc1)NC(=O)[C@H](C)NC(=O)[C@@H](NC(=O)CNC(=O)[C@H](CCCNC(=N)N)NC(=O)[C@@H](N)CCC(=O)O)C(C)C)[C@@H](C)CC)C(=O)N[C@@H](CCC(=O)O)C(=O)NCC(=O)O [Peptide 68.0109] | < 4.70 | < 4.70 | < 4.70 | < 4.70 | < 4.70 |  |  |  |  | < 4.70 |  |  | 
8 | PRWLCAGALVLAGGF [Peptide 68.0083] |  | 5.34 |  | < 4.70 | < 4.70 | < 4.70 |  |  |  |  |  | < 4.70 | 
9 | GVYYIKDGDTTYYVQ [Peptide 90.0216] | 5.79 | 5.24 | < 4.70 | 5.25 | < 4.70 | < 4.70 | 5.81 | 5.60 | < 4.70 |  | 5.15 |  | 
10 | PEWIDRLTVLQHSFN [Peptide 89.0070] | 5.38 | 6.69 | 6.01 |  | 5.58 | < 4.70 | 5.58 |  | 7.89 | < 4.70 | 7.10 |  | 
11 | CC[C@H](C)[C@H](NC(=O)[C@H](CCCCN)NC(=O)[C@H](CCSC)NC(=O)[C@H](CC(=O)O)NC(=O)[C@H](CCCNC(=N)N)NC(=O)[C@H](CCC(=O)O)NC(=O)[C@H](CC(C)C)NC(=O)[C@H](CCCCN)NC(=O)[C@H](Cc1ccccc1)NC(=O)[C@@H](N)Cc1ccccc1)C(=O)N[C@@H](CC(N)=O)C(=O)N[C@@H](CS)C(=O)N[C@@H](CO)C(=O)NCC(=O)N[C@@H](CCCCN)C(=O)O [Peptide 68.0168] | < 4.70 | 5.16 | < 4.70 |  |  |  |  |  |  | < 4.70 |  |  | 
12 | LTELYFEKGEYFVEM [Peptide 68.0153] | < 4.70 | 4.90 | < 4.70 |  | < 4.70 |  |  |  |  |  |  |  | 
13 | CC[C@H](C)[C@H](NC(=O)[C@@H](NC(=O)[C@H](Cc1c[nH]cn1)NC(=O)[C@@H](N)CC(C)C)C(C)C)C(=O)N[C@@H](CO)C(=O)N[C@@H](CC(N)=O)C(=O)N[C@@H](CC(=O)O)C(=O)N[C@H](C(=O)N[C@@H](CS)C(=O)N[C@@H](C)C(=O)N[C@@H](CCC(N)=O)C(=O)N[C@H](C(=O)N[C@@H](Cc1c[nH]cn1)C(=O)N1CCC[C@H]1C(=O)N[C@@H](CCC(N)=O)C(=O)O)C(C)C)C(C)C [Peptide 68.0077] | < 4.70 | < 4.70 | < 4.70 | < 4.70 | < 4.70 | < 4.70 |  |  |  |  |  |  | 
14 | ESVFSSDEISFAGIV [Peptide 90.0195] | 6.17 | < 4.70 | 5.70 | < 4.70 | < 4.70 | < 4.70 | 5.62 | 7.48 |  | 6.22 | 5.07 | 6.63 | 
15 | IYIIEEDTCTMVTGK [Peptide 90.0204] | < 4.70 | 4.78 | 4.73 | < 4.70 | 4.92 | < 4.70 | 5.65 | 6.82 |  | 5.09 | 4.73 | 6.00 | 
16 | CWNYIDDNLRNALDG [Peptide 90.0041] | < 4.70 | < 4.70 | < 4.70 | < 4.70 | < 4.70 | < 4.70 | < 4.70 |  | < 4.70 | < 4.70 | < 4.70 | < 4.70 | 
17 | CSCC[C@H](NC(=O)[C@H](CCC(=O)O)NC(=O)[C@H](CCC(N)=O)NC(=O)[C@@H]1CCCN1)C(=O)N[C@@H](CCCCN)C(=O)N[C@H](C(=O)N[C@@H](Cc1ccc(O)cc1)C(=O)N[C@@H](CO)C(=O)N[C@H](C(=O)N[C@@H](CO)C(=O)N[C@@H](Cc1ccccc1)C(=O)N[C@@H](CC(=O)O)C(=O)N[C@@H](CO)C(=O)N[C@@H](CC(C)C)C(=O)N[C@@H](Cc1ccccc1)C(=O)O)C(C)C)[C@@H](C)O [Peptide 68.0127] |  | 5.27 |  | < 4.70 | < 4.70 |  |  |  |  |  |  | < 4.70 | 
18 | SLSLGFLFLLFFWLD [Peptide 68.0022] | < 4.70 | 5.91 |  | < 4.70 |  | < 4.70 |  |  | < 4.70 | < 4.70 |  |  | < 4.70
19 | CC(C)C[C@H](NC(=O)[C@H](CCC(N)=O)NC(=O)[C@H](CC(=O)O)NC(=O)[C@H](CCC(=O)O)NC(=O)[C@H](CO)NC(=O)[C@H](CC(C)C)NC(=O)[C@@H]1CCCN1C(=O)[C@@H](NC(=O)[C@@H](N)[C@@H](C)O)C(C)C)C(=O)N[C@@H](CC(C)C)C(=O)N[C@@H](Cc1ccc(O)cc1)C(=O)N[C@@H](CC(C)C)C(=O)N1CCC[C@H]1C(=O)N[C@@H](Cc1ccccc1)C(=O)N[C@@H](CCCNC(=N)N)C(=O)O [Peptide 68.0147] | < 4.70 | 5.01 | < 4.70 | < 4.70 | < 4.70 | < 4.70 |  |  |  |  |  |  | 
20 | ITFLGALKSFLKGTP [Peptide 89.0034] | 5.12 | 7.36 | 6.89 |  |  | 7.72 | 7.74 |  | 5.82 | 5.53 |  | < 4.70 | 
